Measurements as given in patent US9579296B2, “Compositions and methods for transdermal delivery of hormones and other medicinal agents” (Teikoku Pharma USA, Inc., priority 2012, dated 2017).
Read-outs that look alike come from different tables or passages of the source.

Protocol: To assay transdermal flux of levonorgestrel and ethinyl estradiol across the skin barrier, traditional Franz diffusion cells were used. Human cadaver skin epidermis was used as the substrate throughout all flux experiments to mimic in vivo conditions.
Prior to beginning the diffusion experiment, human cadaver epidermis was separated from underlying dermal tissue by floating the skin sample on 60° C. water for 2 minutes, followed by gently pealing the epidermis away from the dermal tissue with a spatula. The resulting epidermal tissue is then cut into squares having an approximate size of 2 cm×2 cm. Patch samples were then prepared by die-cutting the patches with a ⅝″ punch and arbor press. The release liner of the punched sample was then removed and the patch sample was placed on top of the epidermis with the drug adhesive layer contacting the stratum corneum. Gentle pressure was applied to the patch sample to achieve good contact between the adhesive layer and the stratum corneum.
Franz diffusion cells were assembled by placing the epidermis-patch samples between the receptor and donor chambers of the diffusion cell and clamping the chambers together with a pinch clamp. The receptor chamber was filled with phosphate buffered saline solution at pH 7.4 with 0.2% (w/w) NaN3 added as a preservative and 2% (w/w) beta-hydroxypropylcylclodextrin added to ensure sink conditions of the receptor fluid throughout the experiment. In addition, a stir bar was added to each receptor chamber. Care was taken to ensure any air bubbles underneath the skin were removed prior to beginning the flux study. The assembled diffusion cells were then placed in a stirring dry bath heater. The receptor chambers were continually stirred throughout the experiment and the temperature maintained at 32° C. Samples were taken at regular intervals over a period seven of days with fresh receptor solution being used to replace the removed sample aliquot. Sample aliquots were analyzed via high performance liquid chromatography (HPLC) with a gradient method using water (with 0.01% (w/w) formic acid) and acetonitrile (with 0.006% (w/w) formic acid) as the mobile phases, an Eclipse Plus C8 column, and ultraviolet (UV) detection at 220 nm. Flux values were calculated from the slopes of cumulative amounts of the drug in the receptor compartment versus time.
Transdermal delivery systems for administration of levonorgesterel and ethinyl estradiol were prepared and tested as described in Example 1, except that the adhesive polymer matrix contained levulinic acid and/or glyceryl monooleate.
Transdermal delivery systems for administration of levonorgesterel and ethinyl estradiol were prepared and tested as described in Example 1, except that the adhesive polymer matrix contained levulinic acid and/or glyceryl monooleate, and pharmaceutical grade PVP/VA S-630 (sold under the tradename Plasdone S-630 by International Specialty Products located at Wayne, N.J.) was used.
Transdermal flux assays measuring the flux of levonorgestrel were performed as described in Example 1.

Q: Which results are given for `CCCCCCCCCCCCCC(=O)OC(C)C` [isopropyl myristate]?
A: flux of ethinyl estradiol, result in words: increase the flux of ethinyl estradiol relative to control Formulation A; flux of levonorgestrel, result in words: increase the flux of levonorgestrel relative to control Formulation A

Q: For `CCCCCCCC/C=C\CCCCCCCC(=O)OCC(O)CO` (stereo not shown) [glyceryl monooleate], which “flux of ethinyl estradiol, result in words” value (Example 1, Formulations A-I) is on record?
A: increase the flux of ethinyl estradiol relative to control Formulation A

Q: What about the “flux of levonorgestrel, result in words” value (Example 1, Formulations A-I) of the same compound?
A: increase the flux of levonorgestrel relative to control Formulation A

Q: And the “flux of levonorgestrel, result in words” value (Example 1, Formulations A-I, listed as Glyceryl monooleate)?
A: larger increase in the flux of levonorgestrel than levulinic acid

Q: With `CC(=O)CCC(=O)O` [levulinic acid] as the compound, how does the “flux of ethinyl estradiol, result in words” value read?
A: increase the flux of ethinyl estradiol relative to control Formulation A

Q: With `CCCCCCCCCCCCOC(=O)C(C)O` (stereo not shown) [lauryl lactate] as the compound, how does the “flux of levonorgestrel, result in words” value read?
A: increase the flux of levonorgestrel relative to control Formulation T
